The target in one experiment is rat orexin 1 receptor (Rattus norvegicus (Rat), UniProt P56718). Put plainly: Rat orexin 1 receptor radioligand binding (competitive binding, HEK293 membranes).
The next experiment deals with human orexin 1 receptor (Homo sapiens (Human), UniProt O43613). Put plainly: Human orexin 1 receptor radioligand binding (competitive binding, CHO membranes).
A further experiment deals with human orexin 2 receptor (Homo sapiens (Human), UniProt O43614). Put plainly: Human orexin 2 receptor radioligand binding ([3H]-EMPA competition, HEK293 membranes).
Setting [1] is: human orexin 2 receptor, Table 2, averages from between 2-20 runs, read-out: hOX2 Ki.
The mark [2] stands for this setting: Table 2, further testing, averages from 2-20 runs, read-out: rOX1 Ki.
[3] abbreviates: Table 2, further testing, averages from 2-20 runs, read-out: hOX1 Ki.
Setting [4] is: Table 2, further testing, averages from 2-20 runs, read-out: hOX2 Ki.
The mark [5] stands for this setting: rat orexin 1 receptor, Table 2, averages from between 2-20 runs, read-out: rOX1 Ki.
The mark [6] stands for this setting: human orexin 1 receptor, Table 2, averages from between 2-20 runs, read-out: hOX1 Ki.

Read-outs that look alike come from different tables or passages of the source.

Chain of rat orexin 1 receptor (P56718 whole entry): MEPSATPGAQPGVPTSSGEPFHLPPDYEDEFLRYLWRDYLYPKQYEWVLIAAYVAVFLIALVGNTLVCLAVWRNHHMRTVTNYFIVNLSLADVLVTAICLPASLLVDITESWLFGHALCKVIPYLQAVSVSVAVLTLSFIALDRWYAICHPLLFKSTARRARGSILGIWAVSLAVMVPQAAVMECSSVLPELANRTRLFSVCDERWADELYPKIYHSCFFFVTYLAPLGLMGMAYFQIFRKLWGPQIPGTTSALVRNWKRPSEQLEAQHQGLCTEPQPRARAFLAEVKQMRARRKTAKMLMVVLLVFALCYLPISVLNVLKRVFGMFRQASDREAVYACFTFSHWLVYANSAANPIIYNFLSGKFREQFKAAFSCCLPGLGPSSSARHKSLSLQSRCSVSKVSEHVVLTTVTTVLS
Chain of human orexin 2 receptor (O43614 whole entry): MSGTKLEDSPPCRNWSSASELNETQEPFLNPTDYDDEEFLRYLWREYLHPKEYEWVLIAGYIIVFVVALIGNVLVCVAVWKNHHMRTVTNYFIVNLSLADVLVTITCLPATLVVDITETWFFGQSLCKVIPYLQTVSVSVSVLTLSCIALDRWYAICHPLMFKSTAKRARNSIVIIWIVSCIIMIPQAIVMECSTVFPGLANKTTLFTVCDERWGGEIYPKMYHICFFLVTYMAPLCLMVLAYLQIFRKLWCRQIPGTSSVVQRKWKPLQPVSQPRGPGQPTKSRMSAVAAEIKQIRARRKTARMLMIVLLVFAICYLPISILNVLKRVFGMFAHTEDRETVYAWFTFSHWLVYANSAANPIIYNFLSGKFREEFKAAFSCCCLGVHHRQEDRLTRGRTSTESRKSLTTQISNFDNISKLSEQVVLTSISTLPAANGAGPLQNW
Chain of human orexin 1 receptor (O43613 whole entry): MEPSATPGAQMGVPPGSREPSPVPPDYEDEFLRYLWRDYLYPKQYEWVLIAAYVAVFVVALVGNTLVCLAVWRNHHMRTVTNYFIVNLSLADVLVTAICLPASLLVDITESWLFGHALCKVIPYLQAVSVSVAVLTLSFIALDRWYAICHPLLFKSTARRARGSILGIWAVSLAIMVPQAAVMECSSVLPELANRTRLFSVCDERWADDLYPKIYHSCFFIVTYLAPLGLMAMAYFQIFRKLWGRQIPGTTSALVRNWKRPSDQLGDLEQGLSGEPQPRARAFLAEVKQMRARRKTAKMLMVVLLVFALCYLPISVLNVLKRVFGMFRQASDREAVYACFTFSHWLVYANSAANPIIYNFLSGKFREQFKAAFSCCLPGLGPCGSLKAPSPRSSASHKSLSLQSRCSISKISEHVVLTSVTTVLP

What is called Ki is a measure of affinity in units of concentration, obtained from inhibition or displacement. In the case of `O=C(c1ccccc1-n1nccn1)N1C2CCC1C(Oc1ccc(C(F)(F)F)cn1)C2` (racemic) [Example 421], the Ki at rat orexin 1 receptor turned out to be 205 nM; on human orexin 1 receptor, 154 nM; at human orexin 2 receptor (setting [1]), 4200 nM.
On to `O=C(c1ccccc1-n1nccn1)N1[C@@H]2CC[C@H]1[C@H](Nc1ncc(C(F)(F)F)cc1F)C2` [Example 448, (2-(2H-1,2,3-triazol-2-yl)phenyl)((1S,2R,4R)-2-((3-fluoro-5-(trifluoromethyl)pyridin-2-yl)amino)-7-azabicyclo[2.2.1]heptan-7-yl)methanone], for which the Ki on rat orexin 1 receptor (setting [2]) amounted to 41 nM; at human orexin 1 receptor (setting [3]), 33 nM; at human orexin 2 receptor (setting [4]), 666 nM.
As for `[2H]C1(Nc2cnc(C(F)(F)F)cn2)CC2CCC1N2C(=O)c1cccc(F)c1-c1ncccn1` [Example 395, (3-fluoro-2-(pyrimidin-2-yl)phenyl)((1S,2R,4R)-(2-^2H)-((5-(trifluoromethyl)pyrazin-2-yl)amino)-7-azabicyclo[2.2.1]heptan-7-yl)methanone], the Ki at rat orexin 1 receptor came out at 17 nM; at human orexin 1 receptor it was 14 nM; on human orexin 2 receptor, 899 nM.
As to `Cc1cccc(C(=O)N2[C@@H]3CC[C@H]2[C@H](Nc2cnc(Br)cn2)C3)c1-c1ncccn1` [Example 310, ((1S,2R,4R)-2-((5-bromopyrazin-2-yl)amino)-7-azabicyclo[2.2.1]heptan-7-yl)(3-methyl-2-(pyrimidin-2-yl)phenyl)methanone], the values for the Ki at rat orexin 1 receptor (setting [5]), at human orexin 1 receptor (setting [6]) and on human orexin 2 receptor (setting [1]) were 9 nM, 7 nM and 381 nM, respectively.
In the same order, the values of `O=C(c1ncccc1-c1ncccn1)N1[C@@H]2CC[C@H]1[C@H](Nc1ncc(C(F)(F)F)cc1Cl)C2` [Example 387, ((1S,2R,4R)-2-((3-chloro-5-(trifluoromethyl)pyridin-2-yl)amino)-7-azabicyclo[2.2.1]heptan-7-yl)(3-(pyrimidin-2-yl)pyridin-2-yl)methanone] are 40 nM, 33 nM and 1100 nM.
As for `Cc1ccc(-c2ncccn2)c(C(=O)N2[C@@H]3CC[C@H]2[C@H](Nc2ncc(C(F)(F)F)cc2F)C3)n1` [Example 456, ((1S,2R,4R)-2-((3-fluoro-5-(trifluoromethyl)pyridin-2-yl)amino)-7-azabicyclo[2.2.1]heptan-7-yl)(6-methyl-3-(pyrimidin-2-yl)pyridin-2-yl)methanone], the Ki at rat orexin 1 receptor (read-out: rOX1 Ki) is 68 nM; at human orexin 1 receptor (read-out: hOX1 Ki), 48 nM; at human orexin 2 receptor (setting [4]) it was 454 nM.
For `O=C(c1cccc(F)c1-c1ncco1)N1[C@@H]2CC[C@H]1[C@H](Nc1ncc(C(F)(F)F)cc1F)C2` [Example 454, (3-fluoro-2-(oxazol-2-yl)phenyl)((1S,2R,4R)-2-((3-fluoro-5-(trifluoromethyl)pyridin-2-yl)amino)-7-azabicyclo[2.2.1]heptan-7-yl)methanone], the Ki is 18 nM at rat orexin 1 receptor (setting [2]), 23 nM at human orexin 1 receptor (setting [3]) and 590 nM at human orexin 2 receptor (setting [4]).
Regarding `O=C(c1c(F)cccc1-c1ncccn1)N1[C@@H]2CC[C@H]1[C@H](Nc1ncc(C(F)(F)F)cn1)C2` [Example 416, (2-fluoro-6-(pyrimidin-2-yl)phenyl)((1S,2R,4R)-2-((5-(trifluoromethyl)pyrimidin-2-yl)amino)-7-azabicyclo[2.2.1]heptan-7-yl)methanone], the Ki was 138 nM on rat orexin 1 receptor (setting [5]), 85 nM on human orexin 1 receptor (setting [6]) and 2100 nM on human orexin 2 receptor (setting [1]).
Regarding `O=C(c1cccc(F)c1-n1nccn1)N1C2CCC1C(Oc1ccc(C(F)(F)F)cn1)C2` (racemic) [Example 423], the Ki was determined as 202 nM at rat orexin 1 receptor, 174 nM on human orexin 1 receptor and 4870 nM at human orexin 2 receptor.
On to `Cc1cccc(C(=O)N2[C@@H]3CC[C@H]2[C@H](Nc2ccc(C#N)cn2)C3)c1-n1nccn1` [Example 391, 6-(((1S,2R,4R)-7-(3-methyl-2-(2H-1,2,3-triazol-2-yl)benzoyl)-7-azabicyclo[2.2.1]heptan-2-yl)amino)nicotinonitrile], for which the Ki was found to be 220 nM at rat orexin 1 receptor (setting [5]), 315 nM on human orexin 1 receptor (setting [6]) and 4400 nM at human orexin 2 receptor (setting [1]).
Turning to `O=C(c1ccccc1-c1ncccn1)N1[C@@H]2CC[C@H]1[C@H](Nc1cnc(C(F)(F)F)cn1)C2` [Example 400, (2-(pyrimidin-2-yl)phenyl)((1S,2R,4R)-2-((5-(trifluoromethyl)pyrazin-2-yl)amino)-7-azabicyclo[2.2.1]heptan-7-yl)methanone], the results for the Ki on rat orexin 1 receptor (read-out: rOX1 Ki), on human orexin 1 receptor (read-out: hOX1 Ki) and on human orexin 2 receptor (setting [1]) were 27 nM, 19 nM and 571 nM, respectively.
Regarding `O=C(c1cccc(F)c1-c1ncc(F)cn1)N1[C@@H]2CC[C@H]1[C@H](Nc1cnc(C(F)(F)F)cn1)C2` [Example 398, (3-fluoro-2-(5-fluoropyrimidin-2-yl)phenyl)((1S,2R,4R)-2-((5-(trifluoromethyl)pyrazin-2-yl)amino)-7-azabicyclo[2.2.1]heptan-7-yl)methanone], the Ki came out at 61 nM on rat orexin 1 receptor (setting [5]), 81 nM at human orexin 1 receptor (setting [6]) and 2100 nM on human orexin 2 receptor (setting [1]).
As to `O=C(c1ccccc1-c1ccccc1)N1[C@@H]2CC[C@H]1[C@H](Nc1cnc(C(F)(F)F)cn1)C2` [Example 407, [1,1′-biphenyl]-2-yl((1S,2R,4R)-2-((5-(trifluoromethyl)pyrazin-2-yl)amino)-7-azabicyclo[2.2.1]heptan-7-yl)methanone], the inhibitory constant (Ki) on rat orexin 1 receptor (read-out: rOX1 Ki) worked out at 18 nM; on human orexin 1 receptor (read-out: hOX1 Ki) it was 17 nM; on human orexin 2 receptor (setting [1]) it was 104 nM.
For the molecule `Cc1cccc(C(=O)N2[C@@H]3CC[C@H]2[C@H](Nc2ccc(C#N)cn2)C3)c1-c1ncco1` [Example 394, 6-(((1S,2R,4R)-7-(3-methyl-2-(oxazol-2-yl)benzoyl)-7-azabicyclo[2.2.1]heptan-2-yl)amino)nicotinonitrile], the Ki on rat orexin 1 receptor (setting [5]) is 187 nM; on human orexin 1 receptor (setting [6]), 250 nM; at human orexin 2 receptor (setting [1]), 2100 nM.
The like results for `O=C(c1ccccc1-c1ncccn1)N1[C@@H]2CC[C@H]1[C@H](Nc1ncc(C(F)(F)F)cc1Cl)C2` [Example 386, ((1S,2R,4R)-2-((3-chloro-5-(trifluoromethyl)pyridin-2-yl)amino)-7-azabicyclo[2.2.1]heptan-7-yl)(2-(pyrimidin-2-yl)phenyl)methanone] were, in that order, 20 nM, 29 nM and 499 nM.
In the same order, the values of `O=C(c1cccc(F)c1-c1ncccn1)N1[C@@H]2CC[C@H]1[C@H](Nc1ncc(C(F)(F)F)cc1Cl)C2` [Example 384, ((1S,2R,4R)-2-((3-chloro-5-(trifluoromethyl)pyridin-2-yl)amino)-7-azabicyclo[2.2.1]heptan-7-yl)(3-fluoro-2-(pyrimidin-2-yl)phenyl)methanone] are 15 nM, 12 nM and 612 nM.
The like results for `Cc1cccc(C(=O)N2C3CCC2C(Nc2cnc(Br)cn2)C3)c1-c1ncco1` [Example 308, ((1S,2R,4R)-2-((5-bromopyrazin-2-yl)amino)-7-azabicyclo[2.2.]heptan-7-yl)(3-methyl-2-(oxazol-2-yl)phenyl)methanone] were, in that order, 6 nM, 4 nM and 173 nM.
Consider `Cc1cccc(C(=O)N2[C@@H]3CC[C@H]2[C@H](Nc2ccc(C(F)(F)F)cn2)C3)c1-c1ncccn1` [Example 299, (3-methyl-2-(pyrimidin-2-yl)phenyl)((1S,2R,4R)-2-((5-(trifluoromethyl)pyridin-2-yl)amino)-7-azabicyclo[2.2.1]heptan-7-yl)methanone], for which the Ki on rat orexin 1 receptor (setting [5]) was 16 nM; on human orexin 1 receptor (setting [6]) it was 7 nM; at human orexin 2 receptor (setting [1]), 234 nM.
Take `Cc1cccc(C(=O)N2[C@@H]3CC[C@H]2[C@H](Nc2ncc(C(F)(F)F)cc2F)C3)c1-n1nccn1` [Example 450, ((1S,2R,4R)-2-((3-fluoro-5-(trifluoromethyl)pyridin-2-yl)amino)-7-azabicyclo[2.2.1]heptan-7-yl)(3-methyl-2-(2H-1,2,3-triazol-2-yl)phenyl)methanone]: the Ki at rat orexin 1 receptor (setting [2]) stood at 14 nM; on human orexin 1 receptor (setting [3]), 32 nM; at human orexin 2 receptor (setting [4]) it was 340 nM.
For the molecule `O=C(c1cccc(F)c1-c1ncccn1)N1[C@@H]2CC[C@H]1[C@H](Nc1ccc(C(F)F)cn1)C2` [Example 389, ((1S,2R,4R)-2-((5-(difluoromethyl)pyridin-2-yl)amino)-7-azabicyclo[2.2.1]heptan-7-yl)(3-fluoro-2-(pyrimidin-2-yl)phenyl)methanone], the Ki on rat orexin 1 receptor (setting [5]) was 123 nM; at human orexin 1 receptor (setting [6]), 168 nM; at human orexin 2 receptor (setting [1]) it was 741 nM.
As for `Cc1cccc(C(=O)N2C3CCC2C(Oc2cnc(C(F)(F)F)cn2)C3)c1-n1nccn1` (racemic) [Example 444], the Ki was found to be 165 nM at rat orexin 1 receptor, 237 nM at human orexin 1 receptor and 4200 nM at human orexin 2 receptor.
For `Cc1cccc(C(=O)N2[C@@H]3CC[C@H]2[C@H](Nc2ccc(Br)cn2)C3)c1-c1ncccn1` [Example 304, ((1S,2R,4R)-2-((5-bromopyridin-2-yl)amino)-7-azabicyclo[2.2.1]heptan-7-yl)(3-methyl-2-(pyrimidin-2-yl)phenyl)methanone], the Ki at rat orexin 1 receptor (setting [5]) is 12 nM; on human orexin 1 receptor (setting [6]) it was 16 nM; on human orexin 2 receptor (setting [1]), 455 nM.
With `O=C(c1ccccc1-c1ncc(F)cn1)N1[C@@H]2CC[C@H]1[C@H](Nc1cnc(C(F)(F)F)cn1)C2` [Example 397, (2-(5-fluoropyrimidin-2-yl)phenyl)((1S,2R,4R)-2-((5-(trifluoromethyl)pyrazin-2-yl)amino)-7-azabicyclo[2.2.1]heptan-7-yl)methanone], the figures for the Ki on rat orexin 1 receptor (read-out: rOX1 Ki), at human orexin 1 receptor (read-out: hOX1 Ki) and at human orexin 2 receptor (setting [1]) were 50 nM, 24 nM and 985 nM, respectively.
On to `O=C(c1cccc(F)c1-c1ncc(F)cn1)N1C2CCC1C(Oc1ccc(C(F)(F)F)cn1)C2` (racemic) [Example 434], for which the Ki is 134 nM at rat orexin 1 receptor, 172 nM at human orexin 1 receptor and over 10000 nM on human orexin 2 receptor.
